Data reported in US5028596A, “1-(β-D-arabinofuranosyl)-5-propynyluracil for treatment of VZV infections” (Burroughs Wellcome Co., priority 1987, dated 1991).

Legend:
[1] = tested on: vaccinia and herpes simplex; details: in vitro, literature; cited from earlier work
[2] = tested on: Varicella zoster virus (VZV); assay: VZV plaque reduction assay in MRC5 cells (without agarose overlay); assay type: cell-based
Protocol: (§1) Human cytomegalovirus (HCMV) is assayed in monolayers of either MRC5 cells (human embryonic lung) or Detroit 532 cells (human foreskin fibroblasts) in multiwell trays. Activity of compounds is determined in the plaque reduction assay, in which a cell monolayer is infected with a suspension of HCMV, and then overlaid with nutrient agarose in the form of a gel to ensure that there is no spread of virus throughout the culture. A range of concentrations of compound of known molarity was incorporated in the nutrient agarose overlay. Plaque numbers of each concentration are expressed as percentage of the control and dose-response curve is drawn. From this curve the 50% inhibitory concentration (IC50) is estimated. Varicella zoster virus (VZV) is assayed in MRC5 cells by a similar method of that of MCMV with the omission of the agarose overlay.

[3] = tested on: Human cytomegalovirus (HCMV); assay: HCMV plaque reduction assay in MRC5 or Detroit 532 cells; assay type: cell-based
Protocol: as §1, with “estimated.” for “estimated. Varicella zoster virus (VZV) is assayed in MRC5 cells by a similar method of that of MCMV with the omission of the agarose overlay.”

[4] = Cell growth inhibition assay (cell toxicity, tetrazolium dye uptake); assay type: cell-based; details: monkey; Vero cells; 50% inhibition of cell viability at 96 hours; read-out: CCID50 at 96 hr.
Protocol: Cell toxicity is assessed in a cell growth inhibition assay. Subconfluent cultures of Vero cells grown on 96-well microtiter dishes are exposed to different dilutions of drug, and cell viability determined daily on replicate cultures using uptake of a tetrazolium dye (MIT). The concentration required for a 50% inhibition of cell viability at 96 hours is termed CCID50.

For `C#Cc1cn([C@H]2C[C@H](O)[C@@H](CO)O2)c(=O)[nH]c1=O` [2'-deoxy-5-ethynyluridine], the “antiviral activity against vaccinia and herpes simplex (in words)” value [1] is listed as “did not demonstrate any effect of use in human medicinal chemotherapy”.
In the case of `CC#Cc1cn([C@H]2C[C@H](O)[C@@H](CO)O2)c(=O)[nH]c1=O` [Example 1, 2'-Deoxy-5-propynyluridine], the IC50 ([2]; Human alphaherpesvirus 3, MRC5, MRC5 cells, plaque reduction) is reported as 1 µM, the “activity against VZV (in words)” value ([2]; qualitative statement) is reported as “potent anti-VZV activity” and the IC50 ([3]; Human betaherpesvirus 5, MRC5, MRC5 or Detroit 532 cells, plaque reduction) is reported as > 16 µM. For the same molecule, the CC50 at 96 h [4] was > 500 µM.
For `C#Cc1cn([C@H]2C[C@H](OC(C)=O)[C@@H](COC(C)=O)O2)c(=O)nc1N` [Example 2, 2'-Deoxy-3',5'-di-O-acetyl-5-ethynylcytidine], the CC50 at 96 h [4] was > 500 µM.
In the case of `C#Cc1cn([C@H]2C[C@H](O)[C@@H](CO)O2)c(=O)nc1N` [Example 3, 2'-Deoxy-5-ethynylcytidine], the “activity against CMV (in words)” value ([3]; qualitative statement) is reported as “high activity against CMV”.
